The values below come from patent US20230381141A1, “CONJOINT THERAPIES FOR TREATING VIRAL INFECTIONS” (priority 2022, published 2023).

Data set [1] addresses SARS-CoV-2 PL^pro (Severe acute respiratory syndrome coronavirus 2, UniProt P0DTD1). As to the kind of experiment: biochemical. Conditions: for inhibition at 50 µM: read-out: inhibition of PL^pro activity in library screening.
The test system of data set [2] is IFN induction (IRF3 reporter). The data set can be described thus: IFN induction assay, IRF3 binding site Firefly luciferase reporter with poly(I:C). It counts as cell-based. A general note: In a reporter assay the amount or activity of a reporter protein is the signal.
Data set [3] has as its system IFN-β induction in HEK293T cells expressing SARS-CoV-2 PL^pro. In kind it is cell-based.
For data set [4] the following is noted: cited from earlier work.
The nature of data set [5]: Plasma drug level in mice by LC-MS/MS. To be noted: C57BL/6, mouse.
Protocol: Following compound administration, mice were euthanized at 2 hours, followed by perfusion.
(§3) Two hours after dosing, mice were anesthetized and blood was collected following transcardial puncture for the isolation of plasma. Mice were then perfused transcardially with saline and brain tissue removed.
The test system of data set [6] is SARS-CoV-2. To be noted: cited from earlier work; for EC50: read-out: antiviral EC50; for EC90: read-out: antiviral EC90.
For data set [7], the system named is Vero E6 normal cells. To be noted: cited from earlier work.
Data set [8] can be described thus: Brain drug level in mice by LC-MS/MS. Conditions: for concentration at 2 h: male, C57BL/6, mouse, brain, po, 30 mg/kg; for brain permeability: pilot PK studies in mice.
Description: as §3
Data set [9] deals with PL^pro (Severe acute respiratory syndrome coronavirus 2, UniProt P0DTD1). To be noted: read-out: reported PL^pro IC50; cited from earlier work.
For data set [10], the target named is PL^pro deubiquitinase activity (Severe acute respiratory syndrome coronavirus 2, UniProt P0DTD1). As to the kind of experiment: PL^pro deubiquitinase substrate assay. It counts as biochemical, SARS-CoV-2. As to the method: (§1) Briefly, in each assay, the enzyme was loaded into each well in the appropriate buffer, next the compounds were added into the well and incubated for 10-60 min at 37° C. The reaction was initiated by addition of substrate to each well and the fluorescent signal was read for 60 min at the appropriate excitation/emission.
(§2) For the PL^pro and PL^pro deubiquitinase assays, DTT was added to the assay buffer to achieve 1 mM DTT before the assay. A 10 mM stock of compounds was prepared in DMSO, this stock was diluted in assay buffer to achieve a 10× of the desire concentration in the well. Next, the PL^pro and deubiquitinase substrates were diluted to 42 μM and 0.5 μM respectively in the assay buffer. Then, PL^pro enzyme was diluted to 2.5 ng/μL and 6 ng/μL for the PL^pro and deubiquitinase assays respectively in the assay buffer. […] The reaction was started by adding 12.5 μL of the substrate to each well, the reaction was monitored for 1 h at excitation at 360 nm; emission at 460 nm. For the ISG15 substrate, PL^pro enzyme at 0.1 nM was incubated with compounds for lh and the reaction was initiated by adding ISG15-RH110 substrate at 500 nM, the reaction was monitored for 1-hour excitation at 485 nm; emission at 535 nm. […] Following the incubation, 2 μL of substrate at 25 μM was added into the wells and the fluorescent signal (ex/em 380/455 nm) was recorded for 1 h at 37° C.

In data set [11] the target is PL^pro ISG15 cleavage activity (Severe acute respiratory syndrome coronavirus 2, UniProt P0DTD1). The data set can be described thus: PL^pro ISG15 substrate (deISGylase) assay. In kind it is biochemical, SARS-CoV-2. As to the method: as §1, §2
The target in data set [12] is SARS-CoV-2 M^pro (Severe acute respiratory syndrome coronavirus 2, UniProt P0DTD1). As to the kind of experiment: M^pro activity assay, fluorogenic substrate. It counts as biochemical. To be noted: alone, FIG. 7B.
In data set [13] the target is spike protein-ACE2 complex (UniProt P0DTC2+Q9BYF1). Conditions: separate study; cited from earlier work.
Where [14] appears, read: 1 μM, poly I:C, Wuhan strain PL^pro.
[15] abbreviates: po, 30 mg/kg, plasma levels, mice, oral gavage 30 mg/kg, given alone, FIG. 5.
[16] abbreviates: SARS-CoV-2 infected VeroE6 cells.
Setting [17] is: po, 30 mg/kg, plasma levels in combination DDL-701+DDL-750, mice, oral gavage 30 mg/kg, combination, FIG. 5.
Where [18] appears, read: male, oral, plasma levels in combination, mice, DDL-701 + DDL-750 both 30 mg/Kg oral, FIG. 9.
Where [19] appears, read: male, po, 30 mg/kg, plasma levels, mice, oral 30 mg/Kg, given alone, FIG. 9.
[20] abbreviates: read-out: Cmax in human plasma after oral dosing, oral dosing.
[21] abbreviates: PL^pro peptide substrate, dose response, read-out: IC50 PL^pro inhibition.
The mark [22] stands for this setting: in combination with DDL-750 or DDL-750/DDL-751, FIG. 2.
The mark [23] stands for this setting: Vero E6 cells infected with SARS-CoV-2.

Several values for one entry are separate records, joined by “and”; a condition that tells them apart may be missing. Equal entries are not always repeated. Entries after “also recorded” stand apart in the source; their conditions may differ. Where two headings read alike, the source gives them in different places. Some results are limits rather than exact numbers.

Chain of spike protein-ACE2 complex (Q9BYF1 18-805, one chain of several): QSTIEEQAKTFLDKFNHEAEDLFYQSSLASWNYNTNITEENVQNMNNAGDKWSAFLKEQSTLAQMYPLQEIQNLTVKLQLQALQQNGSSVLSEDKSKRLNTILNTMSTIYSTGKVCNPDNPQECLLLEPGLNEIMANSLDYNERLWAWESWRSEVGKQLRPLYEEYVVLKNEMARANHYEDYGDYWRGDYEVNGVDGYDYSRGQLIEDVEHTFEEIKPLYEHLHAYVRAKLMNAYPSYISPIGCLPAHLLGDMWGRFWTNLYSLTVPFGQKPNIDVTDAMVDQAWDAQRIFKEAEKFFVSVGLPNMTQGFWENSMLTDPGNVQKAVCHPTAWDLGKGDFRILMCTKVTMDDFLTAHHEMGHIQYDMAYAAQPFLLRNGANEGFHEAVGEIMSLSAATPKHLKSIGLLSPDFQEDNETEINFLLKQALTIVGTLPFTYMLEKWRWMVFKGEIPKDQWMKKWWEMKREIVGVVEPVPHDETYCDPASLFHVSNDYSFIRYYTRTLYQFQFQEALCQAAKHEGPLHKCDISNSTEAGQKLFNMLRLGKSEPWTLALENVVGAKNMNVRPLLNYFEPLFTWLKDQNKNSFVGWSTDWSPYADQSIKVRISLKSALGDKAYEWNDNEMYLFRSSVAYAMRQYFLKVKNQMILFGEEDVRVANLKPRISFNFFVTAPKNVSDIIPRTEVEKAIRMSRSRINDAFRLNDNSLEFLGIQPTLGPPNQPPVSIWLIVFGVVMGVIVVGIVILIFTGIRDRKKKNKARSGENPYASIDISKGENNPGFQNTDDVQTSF

In [1], `COc1cc(C(=O)NS(=O)(=O)c2ccccc2C)ccc1Cc1cn(C)c2ccc(NC(=O)OC3CCCC3)cc12` [DDL-715, zafirlukast] had an IC50 of approximately 24 µM. Moreover, in [1] (compounds at 50 μM), the inhibition at 50 µM is more than 80%. In [2] (at 10 and 1 μM), the IFN induction result is “approximately 1.5 fold over DMSO”. Further, the “rescue of IFN-β induction in the presence of PL^pro” value (“rescue of IFN-β induction” below) in data set [3] (setting [14]) is recorded as “not”; in [3] (any dose) it was “Neither DDL-715 nor DDL-750 rescued IFN-β induction”. Besides, the Cmax in [4] (human, in vivo, po) is approximately 500 nM. In data set [5] (setting [15]), the concentration at 2 h is approximately 4 µM.

Turning to `CC(C)(C)[C@H](NC(=O)C(F)(F)F)C(=O)N1C[C@H]2[C@@H]([C@H]1C(=O)N[C@H](C#N)C[C@@H]1CCNC1=O)C2(C)C` [DDL-750, nirmatrelvir], in data set [2] (at 1 μM), the IFN induction result is given as “approximately 1.3 fold over DMSO”. Also, the “rescue of IFN-β induction” value is “not” in data set [3] (setting [14]) and “Neither DDL-715 nor DDL-750 rescued IFN-β induction” in [3] (any dose). Also, the EC50 in data set [6] (setting [16]) was 0.074 µM. Moreover, the EC90 in data set [6] (setting [16]) was 0.155 µM. Further, in data set [7], the CC50 is more than 100 µM. Further, the concentration at 2 h in data set [8] is ~180 nM and ~91 ng/g; in data set [5] (setting [17]), 0.1 µM; in [5] (setting [15]) it was approximately 0.4 µM; in data set [5] (setting [18]), ~100 nM and ~55 ng/mL; in data set [5] (setting [19]) it was ~500 nM and ~234 ng/mL. For the same molecule, in data set [8], the brain permeability result is “lower brain-permeability”.

Turning to `O=C(O)c1cc(F)c2nc(N3[C@@H]4CC[C@H]3C[C@@H](OCc3c(-c5ccccc5OC(F)(F)F)noc3C3CC3)C4)sc2c1` [tropifexor], the IC50 in [9] is approximately 6 µM. The Cmax in [4] (setting [20]) was less than 100 nM.

As to `CC(C)c1nc(CN(C)C(=O)N[C@H](C(=O)N[C@@H](Cc2ccccc2)C[C@H](O)[C@H](Cc2ccccc2)NC(=O)OCc2cncs2)C(C)C)cs1` [DDL-751, ritonavir], in [2] (at the concentration tested), the IFN induction result was “did not produce IFN induction”.

`CC1=NN(c2ccc(C)c(C)c2)C(=O)/C1=N/Nc1cccc(-c2cccc(C(=O)O)c2)c1O` [DDL-701, eltrombopag]: the “inhibition of PL^pro by DDL-701 in combination with DDL-750” value in data set [1] (DDL-701/750 at 50 μM/0.1 μM, FIG. 7A) was “not affected”. In [1] (DDL-701 alone at 50 μM, FIG. 7A), the “inhibition of PL^pro” value is “almost complete”. Moreover, the IC50 in data set [1] (setting [21]) turned out to be 13 µM; in data set [10] (deubiquitinase substrate, dose response) it was 21 µM; in data set [11] (ISG15 substrate, dose response), 8 µM. Besides, in data set [1] (setting [22]), the “PLpro inhibition in combination” value is reported as “inhibits; also recorded: continues to show its inhibition”. Further, the inhibition at 50 µM in [1] was more than 80%. In addition, in [10] (setting [22]), the “deubiquitinase inhibition in combination” value is reported as “inhibits”. In addition, the “ISG15 activity inhibition in combination” value in data set [11] (setting [22]) is listed as “inhibits”. In addition, in data set [12], the “activity in M^pro activity assay” value was “did not show activity; also recorded: not M^pro”. The IFN induction entry in data set [2] (at 10 and 1 μM) is “approximately 1.5 fold over DMSO”. Further, the results for the “rescue of IFN-β induction” value in [3] (setting [14]) and in data set [3] (higher concentrations than 1 μM) were “modestly yet significantly rescued; also recorded: partially restored” and “did not rescue induction”, respectively. Further, the EC50 is 8.2 µM in [6] (setting [23]) and approximately 8 µM in data set [6] (Vero cells infected with SARS-CoV-2 (Sangeun J. et al., 2020)). Besides, in data set [6] (setting [23]), the EC90 was 9.5 µM. Also, the CC50 in data set [7] was more than 50 µM. The “effect on spike protein-ACE2 complex” value in [13] is “bind and reduce the stability”. The AUC in data set [4] (human, single oral dose of 75 mg, tablet) is 168 µg·h/mL. Also, the Cmax in [4] (read-out: plasma Cmax, human, single oral dose of 75 mg, tablet) was 25000 to 36000 nM; in data set [4] (read-out: steady state drug level in plasma, Cmax, human, 75 mg tablet, oral dosing, steady state), approximately 50000 nM. The concentration at 2 h in [8] was ~1 µM and ~442 ng/g; in data set [5] (setting [17]), 4 µM; in data set [5] (setting [15]) it was approximately 11 µM; in [5] (setting [18]) it was ~4 µM and 1630 ng/mL; in data set [5] (setting [19]), ~14 µM and ~6210 ng/mL. Besides, the “brain penetration relative to nirmatrelvir” value in data set [8] (mice, oral 30 mg/Kg, 2 hours) is recorded as more than 5 fold. Besides, the brain permeability entry in data set [8] is “brain-permeable”.

For `CCCCc1nc(Cl)c(CO)n1Cc1ccc(-c2ccccc2-c2nn[nH]n2)cc1` [losartan], in data set [9], the IC50 is approximately 13 µM. Moreover, the Cmax in [4] (setting [20]) was approximately 500 nM.

For `CC1=NN(c2ccc(C)c(C)c2)C(=O)/C1=N/Nc1cccc(-c2cccc(-c3nnn[nH]3)c2)c1O` [DDL-713, thrombopoietin receptor agonist-1], in data set [1] (setting [21]), the IC50 was approximately 54 µM. Besides, the inhibition at 50 µM in data set [1] (compounds at 50 μM) was more than 80%.

Usually IC50 stands for the concentration that inhibits the measured activity by half. In general, inhibition refers to the relative decrease from the control value, in per cent. The Cmax is the highest concentration seen after dosing. Broadly, the EC50 is the concentration giving half of the maximal effect. As usually defined, the EC90 is the concentration at which the effect reaches the 90% level. One may read the CC50 as the concentration that lowers cell viability or growth by half. The AUC is the area under the concentration-time curve, a measure of exposure.
